# Patent publication US20080300253A1, “TREATMENT OF INFLAMMATORY DISORDERS WITH PRAZIQUANTEL” (Gencross, Inc., priority 2005, published 2008)
# Read-outs that look alike come from different tables or passages of the source.
# Columns and labels:
# IKK α/β = experiment: Phosphorylated IKK α/β in LPS-treated differentiated THP-1 cells (Western blotting); type: cell-based, human; settings: 2 μg/ml LPS + 100 nM praziquantel vs LPS alone
# Method: (§1) The THP-1 human monocytic cell line was treated with 200 nM phorbol myristate acetate (PMA) for 24 hours, resulting in differentiation into functional macrophages. Differentiated THP-1 cells were treated with 2 μg/ml lipopolysaccharide (LPS), and total proteins or nuclear proteins were isolated 0.5, 1, 2, and 3 hours later. In some differentiated THP-1 cell cultures, a combination of LPS and 100 nM praziquantel was added prior to isolation of total and nuclear proteins at the same time points. Both total protein and nuclear protein were quantitated by Western blotting. […] Thus, praziquantel inhibits LPS-induced NF-κB activity by preventing its translocation to the nucleus where it exerts its transcriptional activation effects. Neither α-tubulin nor lamin B protein was affected by either LPS or praziquantel treatment (FIG. 1).
# TNF-α [1] = experiment: Mouse collagen-induced arthritis model: serum TNF-α; type: in vivo, DBA/1 mice; settings: 50 mg/kg oral suspension in saline, once or twice a day for three weeks; vs vehicle
# Method: (§2) Male DBA/1 mice, obtained from the Jackson Laboratory, are maintained in groups of three to five in polycarbonate cages and fed standard mouse chow and water ad libitum. The environment is made specifically pathogen-free. Mice are immunized with bovine type II collagen (CII), at 8 to 12 weeks of age, as described previously (Arthritis Rheum. 2002, 46:1109, 2002; J. Immunol., 5846, 2005). Briefly, CII is dissolved in 0.05N acetic acid at 2 mg/ml, and emulsified (1:1 ratio) with complete Freund's adjuvant (CFA) at 4° C. The mice receive 0.1 ml of the emulsion, containing 100 μg of CII, in the base of the tail as a primary immunization. Booster injections are given into the footpad with 50 μg of CII, similarly dissolved and emulsified with CFA (1:1), 14 days after the primary immunization. CIA develops as early as 3 wk, peaks at 5-7 wk, and thereafter spontaneously resolves at 10 wk. Mice are divided into two groups. One group is administered vehicle (saline), and the other group is administered an oral suspension of 50 mg/kg praziquantel in saline starting 2 weeks after the CII booster injection. Praziquantel administration is continued once or twice a day for three weeks after the initial administration.
# (§3) TNF-α and p38 levels in blood are then assayed as described above, and the incidence and severity of arthritis in the two groups of mice are determined by visual inspection.
# [2] = system: LPS/D-galactosamine-induced acute sepsis; experiment: Survival of LPS/D-galactosamine-treated mice (acute sepsis); type: in vivo, C57BL6 mice
# Method: An acute mouse in vivo sepsis model was used to determine the ability of praziquantel to reduce TNF-α levels. C57BL/6 mice were used which were 7 to 8 weeks old and weighed 25 to 30 g. Fodder (Daehan Biolink) and water were administered ad libitum, and the temperature and relative humidity of the nursery cage were maintained at 21-24° C. and 40-80%, respectively. In addition, the nursery cage light was controlled to switch between day and night every 12 hours. Eight to ten mice were assigned to each experimental group. Each mouse was intraperitoneally (ip) administered 8 ng LPS (Sigma Aldrich) and 8 mg D-galactosamine (SIGMA), each dissolved in 100 μl distilled water, to induce acute sepsis. In order to investigate the effect of praziquantel on TNF-α levels in blood, praziquantel was orally administered to each experimental group at dosages of 12.5 mg/kg, 25 mg/kg or 50 mg/kg, 30 minutes prior to treatment with LPS/D-galactosamine. The blood was sampled 1, 3 and 5 hours after treatment with praziquantel. Serum was isolated from the sampled blood, and the amount of TNF-α was measured by ELISA (R&D Systems, Minneapolis, Minn.).
# Female C57BL6 mice (8-10 per experimental group) were treated as described above to induce acute sepsis, and the same doses of praziquantel were administered 30 minutes prior to treatment with LPS/D-galactosamine.
# p38 kinase = p38 kinase amount and phosphorylation in blood mononuclear cells of LPS/D-galactosamine-treated mice (western blotting); type: in vivo; settings: 50 mg/kg oral 30 minutes prior to LPS/D-galactosamine; blood 3 hours later
# Method: (§4) Mice were orally administered 50 mg/kg praziquantel 30 minutes prior to ip injection of 8 ng LPS and 8 mg D-galactosamine. Blood samples were taken 3 hours later, and mononuclear cells were isolated using Histopaque (Sigma Aldrich, cat #1080). Protein levels and their phosphorylation states were then determined by western blotting.
# TNF-α [3] = experiment: TNF-α amount in LPS-treated differentiated THP-1 cells (Western blotting); type: cell-based, human
# Method: as §1
# p38 [4] = experiment: Mouse collagen-induced arthritis model: serum p38; type: in vivo, DBA/1 mice; settings: 50 mg/kg oral suspension in saline, once or twice a day for three weeks; vs vehicle
# Method: as §2, §3
# ATF-2 [5] = experiment: Phosphorylated ATF-2 in LPS-treated differentiated THP-1 cells (Western blotting); type: cell-based, human; settings: 2 μg/ml LPS + 100 nM praziquantel vs LPS alone
# Method: as §1
# NF-κB = NF-κB total level and nuclear translocation in LPS-treated differentiated THP-1 cells (Western blotting); type: cell-based, human; settings: 2 μg/ml LPS + 100 nM praziquantel
# Method: as §1
# ATF-2 [6] = experiment: ATF-2 phosphorylation in blood mononuclear cells of LPS/D-galactosamine-treated mice (western blotting); type: in vivo; settings: 50 mg/kg oral 30 minutes prior to LPS/D-galactosamine; blood 3 hours later
# Method: as §4
# [7] = system: collagen-induced arthritis; experiment: Mouse collagen-induced arthritis model: severity of arthritis by visual inspection; type: in vivo, DBA/1 mice; settings: 50 mg/kg oral suspension in saline, once or twice a day for three weeks; vs vehicle
# Method: as §2, §3
# [8] = rats; cited from earlier work
# [9] = dogs dosed with 100 mg/kg; cited from earlier work
# p38 [10] = experiment: Phosphorylated p38 in LPS-treated differentiated THP-1 cells (Western blotting); type: cell-based, human; settings: 2 μg/ml LPS + 100 nM praziquantel vs LPS alone
# Method: as §1
# IκB = IκB amount and phosphorylation in blood mononuclear cells of LPS/D-galactosamine-treated mice (western blotting); type: in vivo; settings: 50 mg/kg oral 30 minutes prior to LPS/D-galactosamine; blood 3 hours later
# Method: as §4, with “blotting. […] The amount of IKK-α and IKK-β proteins and their phosphorylation states were also examined. […] IKK-α and IKK-β are known to phosphorylate IκB, and phosphorylated IκB is degraded by a protease.” for “blotting.”
# TNF-α [11] = experiment: Serum TNF-α (ELISA) in acute mouse sepsis model (LPS/D-galactosamine); type: in vivo, C57BL/6 mice; settings: 12.5, 25 or 50 mg/kg oral, 30 minutes prior to LPS/D-galactosamine
# IKK-α = IKK-α phosphorylation in blood mononuclear cells of LPS/D-galactosamine-treated mice (western blotting); type: in vivo; settings: 50 mg/kg oral 30 minutes prior to LPS/D-galactosamine; blood 3 hours later
# Method: as §4, with “blotting. […] The amount of IKK-α and IKK-β proteins and their phosphorylation states were also examined. […] IKK-α and IKK-β are known to phosphorylate IκB, and phosphorylated IκB is degraded by a protease.” for “blotting.”
# IKK-β = IKK-β phosphorylation in blood mononuclear cells of LPS/D-galactosamine-treated mice (western blotting); type: in vivo; settings: 50 mg/kg oral 30 minutes prior to LPS/D-galactosamine; blood 3 hours later
# Method: as §4, with “blotting. […] The amount of IKK-α and IKK-β proteins and their phosphorylation states were also examined. […] IKK-α and IKK-β are known to phosphorylate IκB, and phosphorylated IκB is degraded by a protease.” for “blotting.”
# [12] = cats dosed with 100 mg/kg; cited from earlier work
structure (smiles),measurement,setting,value
"O=C(C1CCCCC1)N1CC(=O)N2CCc3ccccc3C2C1 (stereo not drawn) [Praziquantel, 2-(cyclohexylcarbonyl)-1,2,3,6,7,11β-hexahydro-4H-pyrazino[2,1-α]isoquinoline-4-one]",active (phosphorylated) form of IKK α/β,IKK α/β,Significant reductions
same,serum levels of TNF-α,TNF-α [1],significantly reduced
same,Survival (# of mice),"[2]; 12.5 mg/kg oral, 0 h",(30/30)
same,Survival rate,"[2]; 12.5 mg/kg oral, 0 h",100%
same,Survival (# of mice),"[2]; 12.5 mg/kg oral, 5 h",(30/30)
same,Survival rate,"[2]; 12.5 mg/kg oral, 5 h",100%
same,Survival (# of mice),"[2]; 12.5 mg/kg oral, 6 h",(26/30)
same,Survival rate,"[2]; 12.5 mg/kg oral, 6 h",86%
same,Survival (# of mice),"[2]; 12.5 mg/kg oral, 7 h",(17/30)
same,Survival rate,"[2]; 12.5 mg/kg oral, 7 h",57%
same,Survival (# of mice),"[2]; 12.5 mg/kg oral, 8 h",(15/30)
same,Survival rate,"[2]; 12.5 mg/kg oral, 8 h",50%
same,Survival (# of mice),"[2]; 12.5 mg/kg oral, 9 h",(13/30)
same,Survival rate,"[2]; 12.5 mg/kg oral, 9 h",43%
same,Survival (# of mice),"[2]; 12.5 mg/kg oral, 10 h",(4/30)
same,Survival rate,"[2]; 12.5 mg/kg oral, 10 h",14%
same,Survival (# of mice),"[2]; 12.5 mg/kg oral, 11 h",(4/30)
same,Survival rate,"[2]; 12.5 mg/kg oral, 11 h",14%
same,Survival (# of mice),"[2]; 12.5 mg/kg oral, 12 h",(4/30)
same,Survival rate,"[2]; 12.5 mg/kg oral, 12 h",14%
same,Survival (# of mice),"[2]; 12.5 mg/kg oral, >24 h",(4/30)
same,Survival rate,"[2]; 12.5 mg/kg oral, >24 h",14%
same,Survival (# of mice),"[2]; 25 mg/kg oral, 0 h",(30/30)
same,Survival rate,"[2]; 25 mg/kg oral, 0 h",100%
same,Survival (# of mice),"[2]; 25 mg/kg oral, 5 h",(30/30)
same,Survival rate,"[2]; 25 mg/kg oral, 5 h",100%
same,Survival (# of mice),"[2]; 25 mg/kg oral, 6 h",(28/30)
same,Survival rate,"[2]; 25 mg/kg oral, 6 h",93%
same,Survival (# of mice),"[2]; 25 mg/kg oral, 7 h",(21/30)
same,Survival rate,"[2]; 25 mg/kg oral, 7 h",71%
same,Survival (# of mice),"[2]; 25 mg/kg oral, 8 h",(21/30)
same,Survival rate,"[2]; 25 mg/kg oral, 8 h",71%
same,Survival (# of mice),"[2]; 25 mg/kg oral, 9 h",(21/30)
same,Survival rate,"[2]; 25 mg/kg oral, 9 h",71%
same,Survival (# of mice),"[2]; 25 mg/kg oral, 10 h",(21/30)
same,Survival rate,"[2]; 25 mg/kg oral, 10 h",71%
same,Survival (# of mice),"[2]; 25 mg/kg oral, 11 h",(21/30)
same,Survival rate,"[2]; 25 mg/kg oral, 11 h",71%
same,Survival (# of mice),"[2]; 25 mg/kg oral, 12 h",(19/30)
same,Survival rate,"[2]; 25 mg/kg oral, 12 h",64%
same,Survival (# of mice),"[2]; 25 mg/kg oral, >24 h",(19/30)
same,Survival rate,"[2]; 25 mg/kg oral, >24 h",64%
same,Survival (# of mice),"[2]; 50 mg/kg oral, 0 h",(30/30)
same,Survival rate,"[2]; 50 mg/kg oral, 0 h",100%
same,Survival (# of mice),"[2]; 50 mg/kg oral, 5 h",(30/30)
same,Survival rate,"[2]; 50 mg/kg oral, 5 h",100%
same,Survival (# of mice),"[2]; 50 mg/kg oral, 6 h",(28/30)
same,Survival rate,"[2]; 50 mg/kg oral, 6 h",93%
same,Survival (# of mice),"[2]; 50 mg/kg oral, 7 h",(28/30)
same,Survival rate,"[2]; 50 mg/kg oral, 7 h",93%
same,Survival (# of mice),"[2]; 50 mg/kg oral, 8 h",(28/30)
same,Survival rate,"[2]; 50 mg/kg oral, 8 h",93%
same,Survival (# of mice),"[2]; 50 mg/kg oral, 9 h",(28/30)
same,Survival rate,"[2]; 50 mg/kg oral, 9 h",93%
same,Survival (# of mice),"[2]; 50 mg/kg oral, 10 h",(28/30)
same,Survival rate,"[2]; 50 mg/kg oral, 10 h",93%
same,Survival (# of mice),"[2]; 50 mg/kg oral, 11 h",(28/30)
same,Survival rate,"[2]; 50 mg/kg oral, 11 h",93%
same,Survival (# of mice),"[2]; 50 mg/kg oral, 12 h",(28/30)
same,Survival rate,"[2]; 50 mg/kg oral, 12 h",93%
same,Survival (# of mice),"[2]; 50 mg/kg oral, >24 h",(28/30)
same,Survival rate,"[2]; 50 mg/kg oral, >24 h",93%
same,amount of p38 protein,p38 kinase,did not change
same,phosphorylation of p38 kinase,p38 kinase,inhibited
same,amount of TNF-α,"TNF-α [3]; 2 μg/ml LPS + 100 nM praziquantel vs LPS alone, one, two and three hours",much less TNF-α
same,amount of TNF-α,"TNF-α [3]; 2 μg/ml LPS + 100 nM praziquantel, two and three hour time points",barely detectable
same,serum levels of p38,p38 [4],significantly reduced
same,active (phosphorylated) form of ATF-2,ATF-2 [5],Significant reductions
same,total NF-κB levels,NF-κB,not affected
same,translocation of NF-κB to the nucleus,NF-κB; nuclear fraction,did not occur
same,phosphorylation of ATF-2,ATF-2 [6],inhibited
same,severity of arthritis,[7],greatly reduced
same,LD50,[8],"2,000-3,000 mg/kg"
same,adverse effects,[9],No adverse effects
same,active (phosphorylated) form of p38,p38 [10],Significant reductions
same,amount of IκB protein,IκB,did not decrease
same,phosphorylation of IκB,IκB,inhibited
same,amount of TNF-α in blood serum,TNF-α [11],dose-dependent decrease
same,phosphorylation of IKK-α,IKK-α,inhibited
same,phosphorylation of IKK-β,IKK-β,inhibited
same,adverse effects,[12],No adverse effects
